Active and inactive are the calls of the source. The rule behind the calls is not given here.
target: Perilipin-5 (Homo sapiens) + 1-acylglycerol-3-phosphate O-acyltransferase ABHD5 (Homo sapiens) (UniProt Q00G26+Q8WTS1); test: ABHD5-PLIN5 interaction inhibitors, dose response, cell lysate, luminescence, proteins expressed in HEK293T (AID 651733);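 note: split Gaussia princeps luciferase complementation between ABHD5 and MLDP fusion proteins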
Sequence (Q00G26 whole entry, looked up, the tested form may be a part): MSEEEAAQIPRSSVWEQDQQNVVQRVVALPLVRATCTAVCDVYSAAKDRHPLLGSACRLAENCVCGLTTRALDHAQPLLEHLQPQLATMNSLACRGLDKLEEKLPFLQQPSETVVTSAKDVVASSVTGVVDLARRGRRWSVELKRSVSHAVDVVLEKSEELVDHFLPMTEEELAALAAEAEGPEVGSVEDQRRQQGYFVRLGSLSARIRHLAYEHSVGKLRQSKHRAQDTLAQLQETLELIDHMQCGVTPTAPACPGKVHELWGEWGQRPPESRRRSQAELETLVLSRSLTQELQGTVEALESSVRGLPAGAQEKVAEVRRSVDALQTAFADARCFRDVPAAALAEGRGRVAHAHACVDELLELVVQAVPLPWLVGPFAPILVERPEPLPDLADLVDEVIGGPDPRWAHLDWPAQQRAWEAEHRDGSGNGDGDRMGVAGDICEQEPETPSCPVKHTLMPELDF
Sequence (Q8WTS1 whole entry, looked up, the tested form may be a part): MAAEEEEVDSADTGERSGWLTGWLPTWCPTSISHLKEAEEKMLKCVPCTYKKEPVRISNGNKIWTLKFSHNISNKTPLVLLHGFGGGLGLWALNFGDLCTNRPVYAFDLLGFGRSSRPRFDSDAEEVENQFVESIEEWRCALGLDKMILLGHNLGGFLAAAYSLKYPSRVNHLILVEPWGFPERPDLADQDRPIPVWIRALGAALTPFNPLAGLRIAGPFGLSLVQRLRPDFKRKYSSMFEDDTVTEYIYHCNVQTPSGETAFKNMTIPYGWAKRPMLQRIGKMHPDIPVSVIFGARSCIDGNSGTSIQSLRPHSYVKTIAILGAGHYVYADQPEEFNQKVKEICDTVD

Compound | IC50
Cc1cc(C)c(C(CC(=O)c2cccs2)C(C#N)C#N)c(C)c1 (stereo not drawn) | 8.57 µM
CCN(CC)CCN(CC(=O)Nc1c(C)cc(C)cc1C)C(=O)c1ccccc1 | 3.93 µM
COc1ccc(NC(=O)C(c2ccnc3ccccc23)n2c(=O)c(-c3ccco3)nc3ccccc32)cc1 (stereo not drawn) | 7.88 µM
CCN(CC)CCOCCOC(=O)C1(c2ccccc2)CCCC1 | 2.17 µM
CCN(CCCc1ccccc1)CCCc1ccccc1 | 2.62 µM
O=C1NC(=O)N(c2ccccc2F)C(=O)/C1=C/c1ccc(Oc2ccc([N+](=O)[O-])cn2)cc1 | 7.53 µM
CC(C)(C)NC(=O)C(c1cccc2ccccc12)n1c(=O)c(-c2ccco2)nc2ccccc21 (stereo not drawn) | 4.38 µM
CCOC1=CC2=C(C(=O)C(Cl)=CC2=O)[C@@H]2CN(S(=O)(=O)c3ccc(C)cc3)[C@@H](c3ccccc3)[C@H]12 | 2.25 µM
CSC(=Nc1ccccc1)N=C(SCc1ccccc1)N(C)C | 1.19 µM
Cc1ccc(O)c(C(=O)C=Cc2ccccc2)c1 | 2.61 µM
CCOc1cc(N)c(Cl)cc1C(=O)NCC1CN(Cc2ccc(F)cc2)CCO1 (stereo not drawn) | 1.93 µM
CC(=O)Nc1ccc(S(=O)(=O)N2c3ccc(F)cc3CCC2C)cc1 (stereo not drawn) | inactive
COc1ccc(NC(=O)c2cc3ccccc3cc2O)cc1 | inactive
CCOC(=O)C1C(OC(=O)c2ccccc2)CC2CCC1N2C (stereo not drawn) | 5.69 µM
COc1cccc2sc(N(CCCN(C)C)C(=O)COc3ccc(Cl)cc3)nc12 | inactive
CC(=O)Oc1c(Cl)c(N2CCOCC2)c(OC(C)=O)c2ccccc12 | 8.04 µM
O=C(NC1CCCCC1)C(c1ccnc2ccccc12)n1c(=O)c(-c2ccco2)nc2ccccc21 (stereo not drawn) | 4.42 µM
COc1ccccc1C=CC(=O)C=Cc1ccccc1OC | 6.63 µM
CC1=CC(C)(C)Nc2ccc(OC(=O)CN3C(=O)CCC3=O)cc21 | 3.21 µM
Cc1ccc(C(=O)c2c(C)oc3c2C(=O)C(=O)c2ccccc2-3)cc1 | 5.87 µM
COc1cc(C(C)=O)ccc1OCc1cn(CC(=O)c2ccc(O)cc2)nn1 | 5.81 µM
CCc1nnc(NC(=O)c2nc(S(=O)(=O)Cc3cccc(C)c3)ncc2Cl)s1 | 4.49 µM
COc1cc2c(cc1OC)C(C)N(CCc1ccc(Cl)cc1)CC2 (stereo not drawn) | 5.37 µM
CN(C)CCOc1ccc(-c2c(-c3ccccc3)sc3ccccc23)cc1 | inactive
CC1=CC2C(C(O)CC3(C)C2CC(C)C32OCOC23COCO3)C2(C)C/C(=C\O)C(=O)C=C12 (stereo not drawn) | 3.6 µM

Compound | IC50
CC(=O)Cc1cc(O)c2ccccc2c1OC(=O)c1ccc(Br)cc1 | 4.1 µM
COc1ccc(NC(=O)C(c2cccc3ccccc23)n2c(=O)c(-c3ccco3)nc3ccccc32)cc1 (stereo not drawn) | inactive
CC1=CC(C)(C)Nc2ccc(OC(=O)CN3C(=O)c4cccc5cccc(c45)C3=O)cc21 | inactive
COC(=O)c1cc(=O)n(Cc2ccco2)c(=Nc2ccc(F)cc2)s1 | 3.58 µM
CCN1C/C(=C/c2ccc(OC)c(O)c2)C(=O)/C(=C/c2ccc(OC)c(O)c2)C1 | 7.28 µM
COc1ccc(NC(=S)N(CCCN2CCCC2)Cc2cccn2Cc2ccc(Cl)cc2)cc1Cl | inactive
O=C(NCc1ccccc1)C(c1ccc(-c2ccccc2)cc1)n1c(=O)c(-c2ccco2)nc2ccccc21 (stereo not drawn) | 5.97 µM
COc1ccc(NC(=O)C(c2ccc(OC)cc2)n2c(=O)c(-c3ccco3)nc3ccccc32)cc1 (stereo not drawn) | inactive
C#CCN(C[C@@H]1[C@@H](OC(=O)NC2CCCC2)[C@@H](OC(=O)NC2CCCC2)Cn2c(=O)ccc(=O)n21)S(=O)(=O)c1ccc(C)cc1 | 7.83 µM
CCSc1nnc(NC(=O)c2nc(S(=O)(=O)Cc3ccc(F)cc3)ncc2Cl)s1 | 3.78 µM
N#Cc1ccc(C(C(=O)NC2CCCCC2)n2c(=O)c(-c3ccco3)nc3ccccc32)cc1 (stereo not drawn) | 4.03 µM
C#CCN(C[C@@H]1[C@@H](OC(=O)NCCCCCC)[C@@H](OC(=O)NCCCCCC)Cn2c(=O)ccc(=O)n21)S(=O)(=O)c1ccc(C)cc1 | 6.47 µM
CC(C)(C)NC(=O)C(c1cc2ccccc2o1)n1c(=O)c(-c2ccco2)nc2ccccc21 (stereo not drawn) | 3.94 µM
Cc1ccc(/C(O)=C2/C(=O)C(=O)OC2c2ccc(Cl)cc2)cc1 (stereo not drawn) | inactive
C=C1C(=O)O[C@H]2C[C@H]1[C@@H](OC(C)=O)C/C(C)=C/CC/C(C)=C\CC[C@]2(C)O | 1.6 µM
COC(=O)c1cc(=O)n(-c2ccc(F)cc2)c(=Nc2ccc(F)cc2)s1 | 3.34 µM
C#CCN(C[C@@H]1[C@@H](OC(=O)NCc2ccc(OC)c(OC)c2)[C@@H](OC(=O)NCc2ccc(OC)c(OC)c2)Cn2c(=O)ccc(=O)n21)S(=O)(=O)c1ccc(C)cc1 | 5.74 µM
O=CC1=C(c2ccccc2)Oc2ccccc2O1 | 3.02 µM
CN1[C@@H]2CC[C@H]1CC(OC1c3ccccc3CCc3ccccc31)C2 (stereo partly drawn) | 2.38 µM
Cc1nnc(NC(=O)c2nc(S(=O)(=O)Cc3ccccc3C)ncc2Cl)s1 | 5.92 µM
COc1ccc(/C=C/C(=O)c2cc(F)ccc2OC(=O)c2ccc(OC)c(OC)c2)cc1OC | 3.22 µM
CC(C)c1nnc(NC(=O)c2nc(S(=O)(=O)Cc3ccc(F)cc3)ncc2Cl)s1 | 3.45 µM
Cc1ccc(NC(=O)CSc2nnc(-c3ccco3)c(-c3ccco3)n2)cc1 | 4.82 µM
Cc1cccc(C)c1NC(=O)C(c1ccccc1F)n1c(=O)c(-c2ccco2)nc2ccccc21 (stereo not drawn) | 5.65 µM
Cc1cccc(C)c1OCc1cn(CC(=O)c2ccc(O)cc2)nn1 | 5.07 µM

Compound | IC50
COc1cc(OC)cc(C(=O)NC(=S)N(Cc2ccccc2)C(C)C)c1 | inactive
O=c1c(-c2ccco2)nc2ccccc2n1C(CCc1ccccc1)c1nc2ccccc2[nH]1 (stereo not drawn) | 5.14 µM
CN(C)CCCNC(=O)c1ccc(-c2nc(-c3ccc(Cl)cc3)cs2)cc1 | inactive
Cc1ccc(S(=O)(=O)N2C[C@@]3(O)Cn4c(=O)ccc(=O)n4C[C@@]3(OC(=O)NCC3CCCCC3)C2)cc1 | inactive
CCCCCNC(=O)C(C1CC1)n1c(=O)c(-c2ccco2)nc2ccccc21 (stereo not drawn) | 9.99 µM
O=C(COc1ccccc1Cl)Nc1ccc(N2CCCC2)cc1 | > 39.9 µM (inactive)
COc1ccc(NC(=O)C(c2ccc(C#N)cc2)n2c(=O)c(-c3ccco3)nc3ccccc32)cc1 (stereo not drawn) | inactive
CCSc1ccc2c(c1)N(CCCN1CCN(C)CC1)c1ccccc1S2 | 5.95 µM
COCCNC(=O)/C(C#N)=C/c1cccc(/C=C(\C#N)C(=O)NCCOC)c1 | 1.09 µM
CN(C)CCCN(C(=O)CCc1ccccc1)c1nc2ccc(Br)cc2s1 | inactive
COC/C=C/C1=CC2=CC(=O)C(C)(OC(=O)C3CCCC3)C(=O)C2=CO1 (stereo not drawn) | 3.88 µM
Oc1ccc2sc(-c3ccccc3O)c(-c3ccc(OCCN4CCCCC4)cc3)c2c1 | inactive
O=C(NCc1ccccc1)C(C1CC1)n1c(=O)c(-c2ccco2)nc2ccccc21 (stereo not drawn) | inactive
NC(=O)C(C(=O)/C=C/c1ccc(Cl)cc1)=C1SCCS1 | inactive
O=C(/C(=C/O)N=Nc1ccc(Cl)cc1)c1ccncc1 | 9.32 µM
O=S(=O)(NC1=NCCCCC1)c1ccc2sc(NS(=O)(=O)c3ccc4ccccc4c3)nc2c1 | inactive
O=C(/C=C/Sc1ccccc1)c1ccc(Cl)cc1 | 4 µM
CCC(c1nc2ccccc2[nH]1)n1c(=O)c(-c2ccco2)nc2ccccc21 (stereo not drawn) | 5.45 µM
CC(C)(C)NC(=O)C(c1ccccc1F)n1c(=O)c(-c2ccco2)nc2ccccc21 (stereo not drawn) | 4.2 µM
COc1ccc(C(C(=O)NC(C)(C)C)n2c(=O)c(-c3ccco3)nc3ccccc32)cc1 (stereo not drawn) | 3.52 µM
CC(C)(C)NC(=O)C(c1ccc(C#N)cc1)n1c(=O)c(-c2ccco2)nc2ccccc21 (stereo not drawn) | 2.52 µM
CCCCCNC(=O)C(c1ccccc1F)n1c(=O)c(-c2ccco2)nc2ccccc21 (stereo not drawn) | 2.39 µM
Cc1ccc2nc3cc([N+](=O)[O-])cc([N+](=O)[O-])c3cc2c1 | 1.09 µM
CSc1nnc(NC(=O)c2nc(S(=O)(=O)Cc3ccccc3)ncc2Cl)s1 | 4.13 µM
N#Cc1ncc(Cc2ccccc2)nc1C#N | inactive

Compound | IC50
O=C(Nc1ccc2c(c1)OCCO2)C(c1ccnc2ccccc12)n1c(=O)c(-c2ccco2)nc2ccccc21 (stereo not drawn) | inactive
O=C(/C=C/c1ccc2c(c1)OCCCO2)c1ccccc1O | 5.14 µM
C=C[C@]1(C)C[C@@H](OC(=O)CSCCN(CC)CC)[C@]2(C)C(C)CC[C@]3(CCC(=O)[C@H]32)[C@@H](C)[C@@H]1O (stereo partly drawn) | 4.62 µM
O=C(NCc1ccccc1)C(c1ccc(C(F)(F)F)cc1)n1c(=O)c(-c2ccco2)nc2ccccc21 (stereo not drawn) | 3.15 µM
CCC1(C)N=C(c2ccc3c(c2)OCO3)CC(c2ccccc2O)N1 (stereo not drawn) | 1.93 µM
COc1ccc(C(C(=O)Nc2c(C)cccc2C)n2c(=O)c(-c3ccco3)nc3ccccc32)cc1 (stereo not drawn) | 4.29 µM
CC(C)(C)NC(=O)C(c1ccc(-c2ccccc2)cc1)n1c(=O)c(-c2ccco2)nc2ccccc21 (stereo not drawn) | 2.56 µM
CS(=O)(=O)c1ccc(C(=O)NCCN2C(=O)S/C(=C\c3cccnc3)C2=O)cc1[N+](=O)[O-] | 4.62 µM
CC(=O)OCC1=C(C(=O)O)N2C(=O)C(NC(=O)CCn3nc(C(F)(F)F)c(Br)c3C3CC3)C2SC1 (stereo not drawn) | inactive
Cc1nc2c(o1)CCc1ccccc1C2N1CCN(C)CC1 (stereo not drawn) | 4.44 µM
Cc1cccc(NC(=O)CSc2nnc(-c3ccco3)c(-c3ccco3)n2)c1 | 4.25 µM
CCc1nnc(NC(=O)c2nc(S(=O)(=O)Cc3ccccc3)ncc2Cl)s1 | 5.18 µM
CCOc1cc(/C=C2\CCC/C(=C\c3cc(Cl)c(O)c(OCC)c3)C2=O)cc(Cl)c1O | 3.55 µM
CN(C)c1ccc(Cc2cc3c(O)ccc(O)c3cc(Cc3ccc(N(C)C)cc3)c2=O)cc1 | 4.13 µM
Cc1cc(C)c2nc(NNC(=O)c3ccc(S(=O)(=O)N4CCCC(C)C4)cc3)sc2c1 (stereo not drawn) | 1.88 µM
CCCc1nnc(NC(=O)c2nc(S(=O)(=O)Cc3cccc(C)c3)ncc2Cl)s1 | 4.91 µM
O=C1C(=O)c2c(C(=O)c3ccccc3)coc2-c2ccccc21 | 5.97 µM
Cc1ccc(S(=O)(=O)N2C[C@H]3n4c(=O)ccc(=O)n4C[C@H](OC(=O)Nc4cccs4)[C@@]3(O)C2)cc1 | 8.68 µM
O=C(NCc1ccccc1)C(c1cccc2ccccc12)n1c(=O)c(-c2ccco2)nc2ccccc21 (stereo not drawn) | 4.2 µM
O=C(CF)N(O)c1ccc(C=Cc2ccccc2)cc1 | > 39.9 µM (inactive)
Cc1cccc(C)c1NC(=O)C(c1ccccc1)n1c(=O)c(-c2ccco2)nc2ccccc21 (stereo not drawn) | 7.69 µM
COc1ccccc1-c1cc(C(=O)NC2CCN(C)CC2)c2ccc(Cl)c(C)c2n1 | inactive
CC(C)(C)NC(=O)C(C1CC1)n1c(=O)c(-c2ccco2)nc2ccccc21 (stereo not drawn) | 7.1 µM
